From US11513122B2, “Predicting response to PD-1 axis inhibitors” (Hoffmann-La Roche Inc., priority 2016, dated 2022)

Tests used:
[1] = system: patients with renal cell carcinoma; test: Phase I clinical trial (NCT01375842), response and survival by DC gene expression; type: in vivo, human
From the text: We hypothesized that patients with DC abundance may respond to PD-L1 blockade leading to beneficial effect in patients who received the treatment. We analyzed 56 patients with renal cell carcinoma who received Atezolizumab in a Phase I clinical trial (NCT01375842) (www.clinicaltrials.gov). This study was sponsored by Genentech Inc., a member of the Roche Group, which provided the study drug. The protocol and its amendments were approved by the relevant institutional review boards or ethics committees, and all participants provided written informed consent. This study was conducted in accordance with the Declaration of Helsinki and International Conference on Harmonization Guidelines for Good Clinical Practice. In total, 56 patients were analyzed. Based on the “Best Confirmed Overall Response by the Investigator” we observed 6 responders (CR=1; PR=5) and 47 non-responder (PD=21; SD=26) as well as 3 patients without known information (FIG. 7).
Tumor specimens at baseline were archived and taken for gene expression profiling performed by RNA Sequencing (RNA-Seq). Based on literature (Merad, ann rev immunol 2013), we selected a list of genes consisting of XCR1, IRF8, BATF3 and FLT3, which are associated with human dendritic cell development with cross-presenting specialization. The log 2 RPKM expression values of each selected gene across the whole cohort were divided at medium expression level for the higher expression ones (+) and lower/no expression ones (−). Using in-house R scripts the two defined subgroups were plotted against the Kaplan-Meier survival curves. […] The medium survival between patients with higher expression versus lower/no expression were separated for at least 15.6 months or longer (FIG. 9).
As several genes linked to human dendritic cell development were associated with the survival advantages, we investigated the impact of multiple genes involved in human DC development and function by defining a cumulative DC gene score (DC score) reflecting the cumulative expression of these marker genes. Each gene's expression is first standardized by a z-score: z=(x−μ)/σ,
where μ and σ are estimated in the entire cohort or in the selected subgroups. After the standardization step, these standardized z-score values are averaged across genes within each patient. The RCC cohort was corrected for the sex of patient as well as the Stage at Initial Diagnosis.

[2] = system: patients with non-small cell lung cancer (NSCLC); test: Phase II clinical trial POPLAR (NCT01903993), overall survival by DC gene expression; type: in vivo, human
From the text: Further to Example 3, we analyzed 193 patients with non-small cell lung cancer (NSCLC) previously treated, then received atezolizumab or docetaxel in a Phase II clinical trial POPLAR. This study is registered with ClinicalTrials.gov, number NCT01903993. POPLAR is a multicentre, randomised, open-label phase II trial, done at 61 academic medical centers and community oncology practices across 13 countries in Europe and North America. The study was done in full accordance with the guidelines for Good Clinical Practice and the Declaration of Helsinki. Protocol (and modification) approval was obtained from an independent ethics committee for each site (Fehrenbacher L, et. Al., Lancet 2016). Among those patients with squamous or non-squamous NSCLC, 96 received Docetaxel, and 92 received atezolizumab, and the rest of 5 left untreated (Table 1).
Tumor specimens at baseline were archived and taken for gene expression profiling performed by RNA Sequencing (RNA-Seq). Based on literature (Merad M. et al, Ann. Rev. Immunol. 2013), we selected a list of genes consisting of XCR1, IRF8, BATF3, and FLT3, which are associated with human dendritic cell phenotypes and development with cross-presenting specialization. Normalized read counts of each selected gene across the whole cohort were divided at medium expression level for the higher expression ones (+) and lower/no expression ones (−). Using in-house R scripts the two defined subgroups were plotted against the Kaplan-Meier survival curves. In addition, Cox-regression analysis was used to calculate the hazard ratio (HR) between the two patient groups divided based on positive and negative gene expression.
We also investigated the impact of multiple genes involved in human DC development and function (XCR1, BATF3, FLT3, and IRF8) by defining a cumulative DC gene score (DC score) reflecting the cumulative expression of these marker genes. Each gene's expression is first standardized by a z-score:
where μ and σ are estimated in the entire cohort or in the selected subgroups. After the standardization step, these standardized z-score values are averaged across genes within each patient. The cohort was corrected for the smoking status, ECOG and sex of patient. Then the score was plotted against the Kaplan-Meier survival curves.

[3] = system: MC38 cells (colorectal cancer cell lines); test: MC38 tumor model in CD11c-DTR mice with or without DC depletion by DT; type: in vivo; details: MC38 s.c.; DT 100 ng at day 6; anti-PD-L1 Ab 10 mg/kg from day 7, weekly; FIG. 6B
Procedure: To further study the contribution of DCs by PD-L1 blockade in mediating anti-tumor immunity, we obtained the CD11c-DTR mice from the Jackson laboratory (B6.FVB-Tg(Itgax-DTR/EGFP)57Lan/J, Cat. No. 004509). […]. When tumor is palpable at day 6, mice were treated with 100 ng of DT (Sigma-Aldrich) or left untreated. At day 7, a anti-PD-L1 Ab (10 mg/kg, murine IgG1, clone 6E11, Genentech) was given to mice, followed by weekly injection (FIG. 6A). […] Our data support the concept that DCs are needed for PD-L1 Ab to achieve its maximum anti-tumor efficacy.

[4] = system: human DCs; test: Maturation of monocyte-derived DCs by LPS, PD-1/PD-L1 staining by flow cytometry; type: cell-based; details: LPS 10 ng/mL, FIGS. 2A-2B
Procedure: To address the potential regulation of PD-1 and its ligands on human DCs, monocyte-derived DCs were generated using the classical method. Briefly, Peripheral Blood Mononuclear Cells (PBMCs) were isolated from buffy-coats (Blutspende, Schlieren) from healthy human donors, using Ficoll-Paque™ Plus (GE Healthcare, #17-1440-03) density gradient. Rings of PBMCs were collected and washed with PBS two times by centrifugation (5′ at 763 g; 5′ at 600 g). A lysis was conducted using 10 mL of BD Pharm Lyse™ (BD Biosciences, #555899) diluted at 1× with sterile water and incubated 1,5 minute at room temperature. Two washes with Phosphate-buffered saline 1× (PBS; Gibco® by live technologies™, #20012-019) were conducted by centrifugation (8′ at 135 g). Cells number and quality were evaluated using Cell counter (Beckman Coulter®). Separate unrelated donors were used for each independent experiment. Monocytes were isolated from fresh PBMCs by negative selection using Human monocyte enrichment kit (StemCell, #19059) in MACs buffer (1450 mL Automacs™ Rinsing solution, Miltenyi #130-091-222; and 75 mL MACS BSA stock Solution, Miltenyi #130-091-376) according to the manufacturer's instructions. […] The cells were then stained with anti-PD-1-PE-Cy7 and anti-PD-L1-APC Abs (BioLegend®; #329917, #329707), and measured by flow cytometry (BD). […]

[5] = NSCLC, XCR1 divided at medium expression level

With atezolizumab the CR ([1]; 56 patients analyzed) was 1, the PD ([1]; 56 patients analyzed) was 21 and the PR ([1]; 56 patients analyzed) was 5. For the same compound, the non-responder ([1]; 56 patients analyzed) was 47, the “responders (Best Confirmed Overall Response by the Investigator)” value ([1]; 56 patients analyzed, FIG. 7) was 6 and the “HR, higher versus lower DC score” value ([1]; RCC, p=0.03, FIG. 10) was 0.38. The “medium survival, patients with higher DC score” value ([1]; cumulative DC gene score (XCR1, IRF8, BATF3, FLT3), FIG. 10) was “without reaching medium survival”, the “separation of medium survival between patients with higher expression versus lower/no expression” value ([1]; single genes XCR1, IRF8, BATF3, FLT3, FIG. 9) was “at least 15.6 months” and the “separation of medium OS, higher versus lower/no XCR1 expression” value ([2]; NSCLC) was roughly 7 months. For the same compound, the “medium overall survival (mOS), patients with higher XCR1 expression” value [2, 5] was 15.5 month, the “medium overall survival (mOS), patients with lower/no XCR1 expression” value [2, 5] was 8.6 month and the “medium OS, patients with higher DC signature score” value ([2]; NSCLC, all patients) was 16.4 months. The “medium OS, patients with lower/no DC signature expression” value ([2]; NSCLC, all patients) was 8.5 months, the “separation of medium OS, higher versus lower/no DC signature expression” value ([2]; NSCLC, all patients) was 7.9 months and the “HR, higher versus lower DC signature score” value ([2]; NSCLC, all patients, p=0.04, FIG. 11) was 0.54. The “hazard ratio (HR) by Cox-regression analysis, higher versus lower/no XCR1 expression” value ([2]; NSCLC, p=0.077) was 0.6, the “median OS, patients with lower/no expression” value ([2]; PD-L1+ patients) was 8.4 months and the “medium OS, patients with higher DC gene score” value ([2]; PD-L1+ patients) was “not reached”. For the same compound, the “HR, higher versus lower DC signature score” value ([2]; PD-L1+ patients (TC3, TC2, IC3, IC2), p=0.03, FIG. 12) was 0.25.
With CC(=O)O[C@@]12CO[C@@H]1C[C@H](O)[C@@]1(C)C(=O)[C@H](O)C3=C(C)[C@@H](OC(=O)[C@H](O)[C@@H](NC(=O)OC(C)(C)C)c4ccccc4)C[C@@](O)([C@@H](OC(=O)c4ccccc4)[C@H]21)C3(C)C [docetaxel] the “correlation of XCR1 expression to survival” value ([2]; NSCLC) was “no correlation” and the “correlation of DC genes expression to survival” value ([2]; PD-L1+ patients) was “no correlation”.
For diphtheria toxin [DT], the tumor growth [3] was “did not impact the tumor growth”.
In the case of lipopolysaccharide [LPS], the “PD-1 expression on DCs upon maturation” value [4] is reported as “downregulated” and the “PD-L1 expression on DCs upon maturation” value [4] is reported as “upregulated”.
